Literature values in patent US20030199483A1, “Aldosterone receptor antagonist and alpha-adrenergic modulating agent combination therapy for prevention or treatment of pathogenic conditions” (priority 2002, published 2003).

Tested on: myocardial fibrosis in animal models

For CC(=O)S[C@@H]1CC2=CC(=O)CC[C@]2(C)[C@H]2CC[C@@]3(C)[C@@H](CC[C@@]34CCC(=O)O4)[C@H]12 [spironolactone, 17-hydroxy-7α-mercapto-3-oxo-17α-pregn-4-ene-21-carboxylic acid γ-lactone acetate], the myocardial fibrosis (D. Klug et al 1993) is listed as “prevents myocardial fibrosis” and the fibrosis (irrespective of the development of left ventricular hypertrophy and the presence of hypertension, C. G. Brilla et al 1993) is listed as “prevent fibrosis”.
